Columns and labels:
[1] = Intrinsic clearance in human liver microsomes; type: ADME, Microsome
[2] = Half life in human liver microsomes; type: ADME, Microsome
[3] = Oral bioavailability in rat; type: ADME, organism-based; conditions: in vivo
[4] = Clearance in rat; type: ADME, organism-based; conditions: in vivo
[5] = Volume of distribution at steady state in rat; type: ADME, organism-based; conditions: in vivo, read-out: Vdss
[6] = biological target: High affinity cAMP-specific and IBMX-insensitive 3',5'-cyclic phosphodiesterase 8B (Homo sapiens, UniProt O95263); assay: Inhibition of PDE8B
Sequence of High affinity cAMP-specific and IBMX-insensitive 3',5'-cyclic phosphodiesterase 8B (O95263 whole entry): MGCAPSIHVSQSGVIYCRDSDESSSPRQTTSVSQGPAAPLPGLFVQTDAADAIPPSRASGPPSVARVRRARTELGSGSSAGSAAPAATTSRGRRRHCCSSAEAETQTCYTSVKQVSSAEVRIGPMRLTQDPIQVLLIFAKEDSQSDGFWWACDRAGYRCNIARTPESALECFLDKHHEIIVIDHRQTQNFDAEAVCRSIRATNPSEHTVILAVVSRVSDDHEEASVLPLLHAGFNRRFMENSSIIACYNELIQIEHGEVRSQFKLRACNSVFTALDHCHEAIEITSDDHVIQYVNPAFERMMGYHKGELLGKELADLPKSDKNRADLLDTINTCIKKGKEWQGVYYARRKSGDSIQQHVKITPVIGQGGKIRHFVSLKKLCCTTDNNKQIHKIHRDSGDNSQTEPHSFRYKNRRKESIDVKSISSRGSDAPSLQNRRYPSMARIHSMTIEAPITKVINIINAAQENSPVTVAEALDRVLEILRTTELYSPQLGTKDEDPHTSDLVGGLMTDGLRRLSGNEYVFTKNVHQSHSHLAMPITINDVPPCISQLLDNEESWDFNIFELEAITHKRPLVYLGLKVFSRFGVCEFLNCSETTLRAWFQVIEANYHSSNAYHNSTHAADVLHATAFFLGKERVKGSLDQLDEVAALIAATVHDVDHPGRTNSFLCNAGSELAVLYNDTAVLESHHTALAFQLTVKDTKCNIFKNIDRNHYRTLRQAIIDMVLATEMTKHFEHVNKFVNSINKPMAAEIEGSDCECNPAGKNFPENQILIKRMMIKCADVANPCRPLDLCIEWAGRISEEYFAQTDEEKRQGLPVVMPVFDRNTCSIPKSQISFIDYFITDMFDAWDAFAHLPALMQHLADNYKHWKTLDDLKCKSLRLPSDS

[7] = Dissociation constant, pKa of the compound; type: physicochemical
[8] = Lipophilicity, log D of the compound; type: physicochemical; conditions: octanol/water

SMILES | microsomal CLint [1] [µL/min/mg] | half-life [2] [min] | also measured
CC[C@H]1C[C@@H](C(=O)NCc2cccc(N)n2)CN(Cc2nc(N3CCOCC3)oc2C)C1 | 31.4 | 31.1 | 
CC[C@@H]1C[C@@H](C(=O)NC[C@H]2CCCO2)CN(Cc2nc(-c3ccncn3)[nH]c2C)C1 | 190 |  | 
Cc1oc(-c2ccccc2)nc1CN1CCC[C@@H](C(=O)NC[C@H]2CCCO2)C1 | 84 | 11.6 | 
Cc1cccc(CNC(=O)[C@H]2C[C@H](c3nnc(C)o3)CN(Cc3nc(-c4ccccc4)oc3C)C2)n1 | 290 | < 3 | 
CC[C@@H]1C[C@@H](C(=O)NC[C@@H]2CCCO2)CN(Cc2nc(N3CCOCC3)oc2C)C1 | 131 | 7.45 | 
Cc1cccc(CNC(=O)[C@@H]2C[C@@H](c3nnc(C)o3)CN(Cc3nc(-c4ccccc4)oc3C)C2)n1 | 290 |  | 
CC[C@H]1C[C@@H](C(=O)NCC2CCOCC2)CN(Cc2nc(N3CCOCC3)oc2C)C1 | 40.6 | 24.1 | 
CC[C@H]1C[C@@H](C(=O)NCc2cccc(C)n2)CN(Cc2nc(-c3ccccc3)oc2C)C1 | 118 | 7.71 | 
CC[C@@H]1C[C@@H](C(=O)NCC2CCOCC2)CN(Cc2nc(N3CCOCC3)oc2C)C1 | 142 | 6.88 | 
CC[C@@H]1C[C@@H](C(=O)NCc2cccc(C)n2)CN(Cc2nc(-c3ccccc3)oc2C)C1 |  |  | bioavailability [3]: 7%; clearance [4]: 5.88 L/h/kg; Vd [5]: 1.4 L/kg
COC[C@H]1C[C@H](C(=O)NCc2cccc(C)n2)CN(Cc2nc(-c3ccccc3)oc2C)C1 | 304 | < 3 | 
Cc1oc(-c2ccccc2)nc1CN1CCC[C@@H](C(=O)NC[C@@H]2CCCO2)C1 | 69.1 | 14.1 | 
CC[C@H]1C[C@H](C(=O)NCc2cccc(C)n2)CN(Cc2nc(-c3ccccc3)oc2C)C1 | 304 | 3 | 
Cc1noc([C@@H]2C[C@@H](C(=O)NC[C@@H]3CCCO3)CN(Cc3nc(-c4ccccc4)oc3C)C2)n1 | 182 | 5.68 | 
CC[C@@H]1C[C@@H](C(=O)NCc2cccc(N)n2)CN(Cc2nc(N3CCOCC3)oc2C)C1 | 110 | 8.9 | 
COC[C@H]1C[C@@H](C(=O)NC[C@H]2CCCO2)CN(Cc2nc(N3CCOCC3)oc2C)C1 | < 8 | > 120 | 
Cc1cccc(CNC(=O)C2CN(Cc3nc(-c4ccccc4)oc3C)CCO2)n1 (stereo not given) |  |  | IC50 [6]: > 10 µM
Cc1cccc(CNC(=O)[C@@H]2C[C@@H](c3nc(C)no3)CN(Cc3nc(-c4ccccc4)oc3C)C2)n1 | 105 |  | 
COC[C@@H]1C[C@@H](C(=O)NCC2CCOCC2)CN(Cc2[nH]c(-c3ccncn3)nc2C)C1 | 63 | 15.5 | 
Cc1cccc(CNC(=O)C2CCCN(Cc3nc(-c4ccccc4)oc3C)C2)n1 (stereo not given) | 158 | 5.76 | 
Cc1oc(-c2ccccc2)nc1CN1CCCC(C(=O)NCC2CCOCC2)C1 (stereo not given) | 105 | 9.34 | 

SMILES | microsomal CLint [1] [µL/min/mg] | half-life [2] [min] | also measured
COC[C@H]1C[C@@H](C(=O)NC[C@H]2CCCO2)CN(Cc2nc(-c3ccccc3)oc2C)C1 | 40.3 | 24.2 | 
CC[C@@H]1C[C@@H](C(=O)NC[C@H]2CCCO2)CN(Cc2nc(-c3ccccc3)oc2C)C1 | > 320 | < 3 | 
Cc1cccc(CNC(=O)[C@@H]2CCN(Cc3nc(-c4ccccc4)oc3C)C2)n1 |  |  | IC50 [6]: > 10 µM
Cc1cccc(CNC(=O)[C@H]2C[C@H](c3nc(C)no3)CN(Cc3nc(-c4ccccc4)oc3C)C2)n1 | 290 | < 3 | 
CC[C@@H]1C[C@@H](C(=O)NCC2CCOCC2)CN(Cc2nc(-c3ccccc3)oc2C)C1 | 320 | < 3 | 
CC[C@H]1C[C@@H](C(=O)NC[C@@H]2CCCO2)CN(Cc2nc(N3CCOCC3)oc2C)C1 | 18.9 | 51.7 | 
COC[C@@H]1C[C@@H](C(=O)NC[C@H]2CCCO2)CN(Cc2nc(N3CCOCC3)oc2C)C1 | 41 | 23.7 | 
COC[C@H]1C[C@@H](C(=O)NCc2cccc(C)n2)CN(Cc2nc(-c3ccccc3)oc2C)C1 | 99.5 | 9.17 | 
Cc1oc(-c2ccccc2)nc1CN1C[C@H](C(=O)NCc2cccc(N)n2)C[C@@H](c2ccccc2)C1 | > 300 |  | 
CC[C@H]1C[C@@H](C(=O)NCC2CCOCC2)CN(Cc2nc(-c3ccccc3)oc2C)C1 | 226 | 4.32 | 
COC[C@@H]1C[C@@H](C(=O)NCC2CCOCC2)CN(Cc2nc(-c3ccccc3)oc2C)C1 | 239 | 4.09 | 
COC[C@@H]1C[C@@H](C(=O)NCC2CCOCC2)CN(Cc2nc(N3CCOCC3)oc2C)C1 | 31.7 | 30.8 | 
COC[C@H]1C[C@@H](C(=O)NCC2CCOCC2)CN(Cc2nc(N3CCOCC3)oc2C)C1 | 19.3 | 50.7 | 
COC[C@@H]1C[C@@H](C(=O)NC[C@H]2CCCO2)CN(Cc2nc(-c3ccccc3)oc2C)C1 | 233 | 4.2 | 
CC[C@H]1C[C@@H](C(=O)NC[C@H]2CCCO2)CN(Cc2nc(-c3ccccc3)oc2C)C1 | 120 | 8.15 | 
CC[C@@H]1C[C@@H](C(=O)NC[C@@H]2CCCO2)CN(Cc2nc(-c3ccccc3)oc2C)C1 | 320 | < 3 | 
CC[C@@H]1C[C@@H](C(=O)NC[C@@H]2CCCO2)CN(Cc2[nH]c(-c3ccncn3)nc2C)C1 | 195 | 5 | 
Cc1oc(-c2ccccc2)nc1CN1CCC[C@@H](C(=O)NCc2cccc(N)n2)C1 | 49 | 20.5 | 
COCC1CC(C(=O)NC[C@H]2CCCO2)CN(Cc2nc(N3CCOCC3)oc2C)C1 (stereo not given in full) |  |  | pKa [7]: 7.2; logD [8]: 1; logD ([8]; read-out: logD): 0.8
COC[C@H]1C[C@@H](C(=O)NCC2CCOCC2)CN(Cc2nc(-c3ccncn3)[nH]c2C)C1 | 19.9 | 49.2 | 
CC[C@@H]1C[C@@H](C(=O)NCc2cccc(N)n2)CN(Cc2nc(-c3ccccc3)oc2C)C1 | 281 | 3.47 | 
